How the values were obtained:
α1a-AR = target: T1, α1a-AR (Homo sapiens, UniProt P35348); assay: α1-Adrenergic Receptor Binding Assay (125I-HEAT radio-ligand), α1a subtype; conditions: membranes of COS-7 cells transfected with α1a subtype; 125I-HEAT 50 pM; rt 1 hr
T1 construct: expressed in transfected cells; host or cells: COS-7 cells (membranes)
T1 sequence (P35348 1-455 isoform P35348-4): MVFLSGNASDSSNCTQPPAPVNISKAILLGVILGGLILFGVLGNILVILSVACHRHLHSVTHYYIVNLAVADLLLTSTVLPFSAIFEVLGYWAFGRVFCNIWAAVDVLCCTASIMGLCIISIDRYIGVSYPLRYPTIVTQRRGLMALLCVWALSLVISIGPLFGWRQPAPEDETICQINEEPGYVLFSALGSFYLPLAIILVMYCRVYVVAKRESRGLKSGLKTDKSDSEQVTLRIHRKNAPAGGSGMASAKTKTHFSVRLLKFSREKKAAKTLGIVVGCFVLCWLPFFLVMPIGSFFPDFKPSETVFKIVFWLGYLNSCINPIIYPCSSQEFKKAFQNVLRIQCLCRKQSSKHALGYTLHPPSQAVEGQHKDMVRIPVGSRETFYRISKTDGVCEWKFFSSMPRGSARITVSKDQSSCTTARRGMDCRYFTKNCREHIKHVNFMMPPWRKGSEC
Method: (§1) α1-Adrenergic Receptor Binding Assay
(§2) Preparation of COS Cell Membranes
(§3) Membranes were prepared from COS-7 cells (African Green monkey kidney SV40-transformed cells) that had been transfected with one of the three α1-AR subtypes (Genbank accession number for the α1a subtype: AF013261; Genbank accession number for the α1b subtype: NM000679; Genbank accession number for the α1d subtype: NM000678) using the following method: COS cells from ten 100 mm tissue culture plates were scraped into a 5 mL volume of TE (a mixture of 50 mM Tris-HCl, 5 mM EDTA, pH 7.4). […] The disrupted cells were centrifuged at 1000×g min at 4° C. Supernatants were centrifuged at 34,500×g for 20 min at 4° C. The membrane pellets were suspended in a 2 mL volume of TNE (a mixture of 50 mM Tris-HCl, 5 mM EDTA and 150 mM NaCl at pH 7.4). An aliquot of the membrane suspension was stored at −70° C. until use. The protein concentration was determined using the BioRad “DC” protein assay kit following membrane solubilization with Triton X-100.
(§4) Radio-Ligand Binding Assay
(§5) Triplicate determinations of radio-ligand binding in the presence of increasing concentrations of testing compound were made. The reagents were added to 96-well polypropylene plate wells. […] The plate was incubated at rt for 1 hr. The contents of the wells were filtered through a glass filter (type C) (GF/C) membrane Unifilter plate (Packard Instruments) using the Packard Filtermate cell harvester. The filter plates were dried in a vacuum oven for 30 min at 40° C. 25 μL Microscint 20 liquid scintillation fluid (Packard Instruments) was added to each well. The radioactive content was analyzed in the TopCount microplate scintillation counter (Packard Instruments).

α1b-AR = target: T2, α1b-AR (Homo sapiens, UniProt P35368); assay: α1-Adrenergic Receptor Binding Assay (125I-HEAT radio-ligand), α1b subtype; conditions: membranes of COS-7 cells transfected with α1b subtype; 125I-HEAT 50 pM; rt 1 hr
T2 construct: expressed in transfected cells; host or cells: COS-7 cells (membranes)
T2 sequence (P35368 1-520): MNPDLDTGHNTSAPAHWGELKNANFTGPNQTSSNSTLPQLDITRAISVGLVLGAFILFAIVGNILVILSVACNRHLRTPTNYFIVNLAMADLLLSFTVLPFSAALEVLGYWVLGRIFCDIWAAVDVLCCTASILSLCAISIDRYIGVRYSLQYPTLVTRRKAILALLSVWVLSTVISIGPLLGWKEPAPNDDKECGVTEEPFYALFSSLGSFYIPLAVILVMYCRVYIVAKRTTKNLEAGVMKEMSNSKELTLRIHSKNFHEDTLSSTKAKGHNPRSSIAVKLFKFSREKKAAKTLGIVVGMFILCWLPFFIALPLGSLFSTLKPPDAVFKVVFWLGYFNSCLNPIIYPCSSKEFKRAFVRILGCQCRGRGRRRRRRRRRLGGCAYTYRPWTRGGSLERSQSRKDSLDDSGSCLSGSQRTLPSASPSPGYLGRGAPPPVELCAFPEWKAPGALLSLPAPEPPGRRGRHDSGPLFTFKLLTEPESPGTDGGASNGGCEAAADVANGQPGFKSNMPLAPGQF
Method: as §1, §2, §3, §4, §5

α1d-AR = target: T3, α1d-AR (Homo sapiens, UniProt P25100); assay: α1-Adrenergic Receptor Binding Assay (125I-HEAT radio-ligand), α1d subtype; conditions: membranes of COS-7 cells transfected with α1d subtype; 125I-HEAT 50 pM; rt 1 hr
T3 construct: expressed in transfected cells; host or cells: COS-7 cells (membranes)
T3 sequence (P25100 1-572): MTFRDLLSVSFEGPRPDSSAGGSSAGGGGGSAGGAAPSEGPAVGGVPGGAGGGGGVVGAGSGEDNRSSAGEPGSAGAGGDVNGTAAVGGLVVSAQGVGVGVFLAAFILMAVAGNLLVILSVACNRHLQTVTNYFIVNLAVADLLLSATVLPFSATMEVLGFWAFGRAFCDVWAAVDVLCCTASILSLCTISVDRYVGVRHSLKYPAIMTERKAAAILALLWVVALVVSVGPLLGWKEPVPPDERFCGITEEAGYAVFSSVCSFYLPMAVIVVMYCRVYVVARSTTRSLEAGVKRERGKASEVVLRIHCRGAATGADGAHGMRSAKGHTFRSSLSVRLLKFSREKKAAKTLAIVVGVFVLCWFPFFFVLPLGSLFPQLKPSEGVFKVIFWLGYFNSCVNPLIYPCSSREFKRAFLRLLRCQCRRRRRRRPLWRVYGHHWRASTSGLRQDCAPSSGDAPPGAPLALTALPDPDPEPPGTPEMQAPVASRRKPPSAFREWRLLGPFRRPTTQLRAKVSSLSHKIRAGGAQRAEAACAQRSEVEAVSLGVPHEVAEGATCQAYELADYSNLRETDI
Method: as §1, §2, §3, §4, §5

Ki (α1a-AR) [µM]	Ki (α1b-AR) [µM]	Ki (α1d-AR) [µM]	SMILES
0.038	0.43	0.0084	CC(C)Oc1ccccc1N1CCN(C2CCC(NC(=O)Nc3ccccc3Oc3ccccc3)CC2)CC1 (mixture of isomers) [Cpd 17, 1-{4-[4-(2-isopropoxy-phenyl)-piperazin-1-yl]-cyclohexyl}-3-(2-phenoxy-phenyl)-urea]
0.101	0.604	0.0134	CC(C)Oc1ccccc1N1CCN(C2CCC(NC(=O)Nc3ccccc3OC(F)(F)F)CC2)CC1 (mixture of isomers) [Cpd 30, 1-{4-[4-(2-isopropoxy-phenyl)-piperazin-1-yl]-cyclohexyl}-3-(2-trifluoromethoxy-phenyl)-urea]
0.155	0.223		COc1ccccc1NC(=O)N[C@H]1CC[C@@H](N2CCN(c3ccccc3OC(C)C)CC2)CC1 [Cpd 1, 1-{c-4-[4-(2-isopropoxy-phenyl)-piperazin-1-yl]-cyclohexyl}-r-3-(2-methoxy-phenyl)-urea]
0.038	0.107		COc1ccccc1NC(=O)N[C@H]1CC[C@H](N2CCN(c3ccccc3OC(C)C)CC2)CC1 [Cpd 2, 1-{t-4-[4-(2-isopropoxy-phenyl)-piperazin-1-yl]-cyclohexyl}-r-3-(2-methoxy-phenyl)-urea]
0.11		0.092	COc1ccc(NC(=O)N[C@H]2CC[C@@H](N3CCN(c4ccccc4OC(C)C)CC3)CC2)c(OC)c1 [Cpd 3, 1-(2,4-dimethoxy-phenyl)-r-3-{c-4-[4-(2-isopropoxy-phenyl)-piperazin-1-yl]-cyclohexyl}-urea]
0.074		0.02	COc1ccc(NC(=O)N[C@H]2CC[C@H](N3CCN(c4ccccc4OC(C)C)CC3)CC2)c(OC)c1 [Cpd 4, 1-(2,4-dimethoxy-phenyl)-r-3-{t-4-[4-(2-isopropoxy-phenyl)-piperazin-1-yl]-cyclohexyl}-urea]
0.082	0.706	0.062	CC(C)Oc1ccccc1N1CCN([C@H]2CC[C@@H](NC(=O)NCc3cccc(F)c3)CC2)CC1 [Cpd 5, 1-(3-fluoro-benzyl)-r-3-{c-4-[4-(2-isopropoxy-phenyl)-piperazin-1-yl]-cyclohexyl}-urea]
0.0108	0.0696	0.0153	CC(C)Oc1ccccc1N1CCN([C@H]2CC[C@H](NC(=O)NCc3cccc(F)c3)CC2)CC1 [Cpd 6, 1-(3-fluoro-benzyl)-r-3-{t-4-[4-(2-isopropoxy-phenyl)-piperazin-1-yl]-cyclohexyl}-urea]
0.0506	0.963		CC(C)Oc1ccccc1N1CCN([C@H]2CC[C@@H](NC(=O)Nc3ccc(F)c(F)c3)CC2)CC1 [Cpd 7, 1-(3,4-difluoro-phenyl)-r-3-{c-4-[4-(2-isopropoxy-phenyl)-piperazin-1-yl]-cyclohexyl}-urea]
0.003	0.074		CC(C)Oc1ccccc1N1CCN([C@H]2CC[C@H](NC(=O)Nc3ccc(F)c(F)c3)CC2)CC1 [Cpd 8, 1-(3,4-difluoro-phenyl)-r-3-{t-4-[4-(2-isopropoxy-phenyl)-piperazin-1-yl]-cyclohexyl}-urea]
0.0475	0.373	0.046	CC(C)Oc1ccccc1N1CCN([C@H]2CC[C@@H](NC(=O)Nc3ccccc3Cl)CC2)CC1 [Cpd 9, 1-(2-chloro-phenyl)-r-3-{c-4-[4-(2-isopropoxy-phenyl)-piperazin-1-yl]-cyclohexyl}-urea]
0.0222			CC(C)Oc1ccccc1N1CCN([C@H]2CC[C@@H](NC(=O)Nc3cccc(Cl)c3)CC2)CC1 [Cpd 11, 1-(3-chloro-phenyl)-r-3-{c-4-[4-(2-isopropoxy-phenyl)-piperazin-1-yl]-cyclohexyl}-urea]
0.0051			CC(C)Oc1ccccc1N1CCN([C@H]2CC[C@H](NC(=O)Nc3cccc(Cl)c3)CC2)CC1 [Cpd 12, 1-(3-chloro-phenyl)-r-3-{t-4-[4-(2-isopropoxy-phenyl)-piperazin-1-yl]-cyclohexyl}-urea]
0.0334			CC(C)Oc1ccccc1N1CCN([C@H]2CC[C@@H](NC(=O)Nc3c(Cl)cccc3Cl)CC2)CC1 [Cpd 13, 1-(2,6-dichloro-phenyl)-r-3-{c-4-[4-(2-isopropoxy-phenyl)-piperazin-1-yl]-cyclohexyl}-urea]
0.0062			CC(C)Oc1ccccc1N1CCN([C@H]2CC[C@H](NC(=O)Nc3c(Cl)cccc3Cl)CC2)CC1 [Cpd 14, 1-(2,6-dichloro-phenyl)-r-3-{t-4-[4-(2-isopropoxy-phenyl)-piperazin-1-yl]-cyclohexyl}-urea]
0.101		0.064	COc1ccc(Cl)cc1NC(=O)N[C@H]1CC[C@@H](N2CCN(c3ccccc3OC(C)C)CC2)CC1 [Cpd 18, 1-(5-chloro-2-methoxy-phenyl)-r-3-{c-4-[4-(2-isopropoxy-phenyl)-piperazin-1-yl]-cyclohexyl}-urea]
0.034		0.0027	COc1ccc(Cl)cc1NC(=O)N[C@H]1CC[C@H](N2CCN(c3ccccc3OC(C)C)CC2)CC1 [Cpd 19, 1-(5-chloro-2-methoxy-phenyl)-r-3-{t-4-[4-(2-isopropoxy-phenyl)-piperazin-1-yl]-cyclohexyl}-urea]
0.014	0.475		CC(C)Oc1ccccc1N1CCN([C@H]2CC[C@@H](NC(=O)Nc3ccc(F)cc3F)CC2)CC1 [Cpd 22, 1-(2,4-difluoro-phenyl)-r-3-{c-4-[4-(2-isopropoxy-phenyl)-piperazin-1-yl]-cyclohexyl}-urea]
0.0031	0.076		CC(C)Oc1ccccc1N1CCN([C@H]2CC[C@H](NC(=O)Nc3ccc(F)cc3F)CC2)CC1 [Cpd 23, 1-(2,4-difluoro-phenyl)-r-3-{t-4-[4-(2-isopropoxy-phenyl)-piperazin-1-yl]-cyclohexyl}-urea]
0.0516	0.299		CC(C)Oc1ccccc1N1CCN([C@H]2CC[C@@H](NC(=O)Nc3c(F)cccc3F)CC2)CC1 [Cpd 26, 1-(2,6-difluoro-phenyl)-r-3-{c-4-[4-(2-isopropoxy-phenyl)-piperazin-1-yl]-cyclohexyl}-urea]
0.0053	0.0356		CC(C)Oc1ccccc1N1CCN([C@H]2CC[C@H](NC(=O)Nc3c(F)cccc3F)CC2)CC1 [Cpd 27, 1-(2,6-difluoro-phenyl)-r-3-{t-4-[4-(2-isopropoxy-phenyl)-piperazin-1-yl]-cyclohexyl}-urea]

Source: US7517885B2, “Substituted [4-(4-phenyl-piperazin-1-yl)-cyclohexyl]-urea compounds” (Janssen Pharmaceutica N.V., priority 2005, dated 2009)
